Measured values from ChEMBL document CHEMBL3871307, “Discovery of Chromane Propionic Acid Analogues as Selective Agonists of GPR120 with in Vivo Activity in Rodents” (ACS Med Chem Lett, 2017).

How the values were obtained:
[1] = Plasma concentration in GPR120 knockout C57BL/6 transverse aortic constriction mouse at 150 mg/kg, po measured at 3 hrs; type: ADME, organism-based; settings: C57BL/6, mouse
[2] = Plasma concentration in C57BL/6 transverse aortic constriction mouse at 10 mg/kg, po via gavage measured at 3 hrs; type: ADME, organism-based; settings: C57BL/6, mouse
[3] = molecular target: T1, Free fatty acid receptor 4 (Mus musculus, UniProt Q7TMA4); experiment: Agonist activity at mouse GPR120 expressed in CHOK1 cells assessed as increase in IP1 accumulation after 60 mins by HTRF assay; type: functional, cell-based, CHO-K1
T1 sequence (Q7TMA4 whole entry): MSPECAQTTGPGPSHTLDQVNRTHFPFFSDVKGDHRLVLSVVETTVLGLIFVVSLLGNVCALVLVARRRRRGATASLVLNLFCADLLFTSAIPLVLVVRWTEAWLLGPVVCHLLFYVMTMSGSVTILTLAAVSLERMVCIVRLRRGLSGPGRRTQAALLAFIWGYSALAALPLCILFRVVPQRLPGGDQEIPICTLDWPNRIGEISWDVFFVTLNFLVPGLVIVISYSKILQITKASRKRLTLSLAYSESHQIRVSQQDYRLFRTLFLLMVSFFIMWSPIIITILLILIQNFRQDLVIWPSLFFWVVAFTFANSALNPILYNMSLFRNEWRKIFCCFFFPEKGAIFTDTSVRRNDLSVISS

[4] = Protein binding in rat plasma at 0.1 mg/kg administered as iv casette dose by LC/MS/MS analysis; type: ADME, organism-based; settings: read-out: PPB (converted)

concentration at 3 h [1]: 53.4 µM
concentration at 3 h [2]: 1170 nM
EC50 [3]: 6.4 nM
fraction unbound [4]: 0.0024
SMILES: CO[C@H]1C[C@H](Oc2cc(F)c(F)c(-c3ccc4c(c3)CC[C@H](CCC(=O)O)O4)n2)C1
